Experimental findings from ChEMBL document CHEMBL3045658, “Design, synthesis, antiviral activity, and SARs of 14-aminophenanthroindolizidines” (2012) are described below.

What all share (assay type): functional
Test [1] has as its system Tobacco mosaic virus. Nature of the test: Antiviral activity against Tobacco mosaic virus (TMV) inoculated in 5-6 growth stage leaf assessed as inhibition effect at 100 ug/mL at 25 degC after 72 hr by half-leaf method.
The test system of test [2] is Tobacco mosaic virus. The test is described as follows: Antiviral activity against Tobacco mosaic virus (TMV) inoculated in 5-6 growth stage leaf assessed as inhibition effect at 500 ug/mL at 25 degC after 72 hr by half-leaf method.
Test [3] has as its system Tobacco mosaic virus. Nature of the test: In vivo antiviral activity against Tobacco mosaic virus (TMV) inoculated right side of Nicotiana. tabacum L. leaves assessed as protection effect at 500 ug/mL preincubated 12 hr before viral challenge measured after 3 to 4 days.
The subject of test [4] is Tobacco mosaic virus. Nature of the test: In vivo antiviral activity against Tobacco mosaic virus (TMV) inoculated left side of Nicotiana. tabacum L. leaves assessed as inactivation effect at 100 ug/mL co-incubated with virus measured after 3 to 4 days.
Test [5] deals with Tobacco mosaic virus. The test is described as follows: In vivo antiviral activity against Tobacco mosaic virus (TMV) inoculated right side of Nicotiana. tabacum L. leaves assessed as protection effect at 100 ug/mL preincubated 12 hr before viral challenge measured after 3 to 4 days.
Test [6] concerns Tobacco mosaic virus. The test is described as follows: In vivo antiviral activity against Tobacco mosaic virus (TMV) inoculated left side of Nicotiana. tabacum L. leaves assessed as inactivation effect at 500 ug/mL co-incubated with virus measured after 3 to 4 days.
Test [7] has as its system Tobacco mosaic virus. The test is described as follows: In vivo antiviral activity against Tobacco mosaic virus (TMV) pre-inoculated Nicotiana. tabacum L. leaves assessed as curative effect at 100 ug/mL measured after 3 to 4 days.
In test [8] the test system is Tobacco mosaic virus. The test is described as follows: In vivo antiviral activity against Tobacco mosaic virus (TMV) pre-inoculated Nicotiana. tabacum L. leaves assessed as curative effect at 500 ug/mL measured after 3 to 4 days.

As for `CCCCN[C@@H]1c2c(c3cc(OC)c(OC)cc3c3cc(OC)ccc23)CN2CCC[C@@H]12`, in the test with Tobacco mosaic virus [1], the inhibition at 100 µg/mL came out at 41.2%. Also, the inhibition at 500 µg/mL in the test on Tobacco mosaic virus [2] stood at 72.3%. The results for the inhibition in vivo at 500 µg/mL with Tobacco mosaic virus [3], in the test with Tobacco mosaic virus [6] and with Tobacco mosaic virus [8] were 69.5%, 64.2% and 66.6%, respectively. For the same molecule, the inhibition in vivo at 100 µg/mL in the test with Tobacco mosaic virus [4] is 32.6%; in the test on Tobacco mosaic virus [5], 36.8%; in the test on Tobacco mosaic virus [7], 30.4%.
With `COc1ccc2c3c(c4cc(OC)c(OC)cc4c2c1)[C@H](NC(=O)C(C)(C)C)[C@@H]1CCCN1C3`, the inhibition at 100 µg/mL in the test on Tobacco mosaic virus [1] turned out to be 28.7%. Besides, the inhibition at 500 µg/mL in the test on Tobacco mosaic virus [2] was 48.3%. Besides, the inhibition in vivo at 500 µg/mL was determined as 52.6% with Tobacco mosaic virus [3], 37.2% in the test with Tobacco mosaic virus [6] and 45.6% in the test on Tobacco mosaic virus [8]. For the same molecule, the inhibition in vivo at 100 µg/mL was 23.6% in the test on Tobacco mosaic virus [4], 24.7% with Tobacco mosaic virus [5] and 31.4% with Tobacco mosaic virus [7].
Turning to `COc1ccc2c3c(c4cc(OC)c(OC)cc4c2c1)[C@H](NC(C)=O)[C@@H]1CCCN1C3`, the inhibition at 100 µg/mL in the test on Tobacco mosaic virus [1] was found to be 55%. Besides, the inhibition at 500 µg/mL in the test with Tobacco mosaic virus [2] is 75.1%. Also, the inhibition in vivo at 500 µg/mL with Tobacco mosaic virus [3] amounted to 72.7%; with Tobacco mosaic virus [6] it was 72.2%; in the test with Tobacco mosaic virus [8] it was 69.6%. Besides, the values for the inhibition in vivo at 100 µg/mL with Tobacco mosaic virus [4], in the test with Tobacco mosaic virus [5] and in the test on Tobacco mosaic virus [7] were 40.4%, 55.3% and 50.8%, respectively.
`COc1cc2c3c(c4cc(OC)c(OC)cc4c2cc1OC)CN1CCCC1C3` (racemic) [(+/-)-TYLOPHORINE]: in the test on Tobacco mosaic virus [1], the inhibition at 100 µg/mL came out at 27.6%. In addition, the inhibition at 500 µg/mL in the test with Tobacco mosaic virus [2] amounted to 51.8%. Further, the inhibition in vivo at 500 µg/mL in the test on Tobacco mosaic virus [3] worked out at 56.6%; in the test on Tobacco mosaic virus [6] it was 46.5%; in the test on Tobacco mosaic virus [8], 52%. The inhibition in vivo at 100 µg/mL with Tobacco mosaic virus [4] is 33.3%; in the test with Tobacco mosaic virus [5] it was 31.5%; in the test on Tobacco mosaic virus [7], 30.7%.
`COc1ccc2c3c(c4cc(OC)c(OC)cc4c2c1)CN1CCC[C@H]1[C@H]3N`: the inhibition at 100 µg/mL in the test with Tobacco mosaic virus [1] worked out at 45%. For the same molecule, the inhibition at 500 µg/mL in the test with Tobacco mosaic virus [2] stood at 72.4%. The inhibition in vivo at 500 µg/mL in the test with Tobacco mosaic virus [3] is 71.6%; in the test with Tobacco mosaic virus [6] it was 70.3%; in the test with Tobacco mosaic virus [8] it was 68%. In addition, the inhibition in vivo at 100 µg/mL in the test on Tobacco mosaic virus [4] worked out at 32.8%; with Tobacco mosaic virus [5], 38.9%; in the test with Tobacco mosaic virus [7], 48.2%.
Take `COc1ccc2c3c(c4cc(OC)c(OC)cc4c2c1)CN1CCC[C@H]1[C@H]3NC(C)=O`: the inhibition at 100 µg/mL with Tobacco mosaic virus [1] was found to be 7.4%. Also, in the test with Tobacco mosaic virus [2], the inhibition at 500 µg/mL came out at 23.5%. Moreover, the figures for the inhibition in vivo at 500 µg/mL with Tobacco mosaic virus [3], in the test on Tobacco mosaic virus [6] and in the test on Tobacco mosaic virus [8] were 28.6%, 38.1% and 25.2%, respectively. The inhibition in vivo at 100 µg/mL is 16.7% in the test with Tobacco mosaic virus [4], 15.3% with Tobacco mosaic virus [5] and 0% with Tobacco mosaic virus [7].
Turning to `CCCCN[C@@H]1c2c(c3cc(OC)c(OC)cc3c3cc(OC)ccc23)CN2CCC[C@H]12`, in the test on Tobacco mosaic virus [1], the inhibition at 100 µg/mL was found to be 24.3%. The inhibition at 500 µg/mL in the test on Tobacco mosaic virus [2] came out at 47.6%. Also, the figures for the inhibition in vivo at 500 µg/mL in the test with Tobacco mosaic virus [3], with Tobacco mosaic virus [6] and in the test on Tobacco mosaic virus [8] were 57.6%, 53.5% and 58.2%, respectively. For the same molecule, the inhibition in vivo at 100 µg/mL in the test on Tobacco mosaic virus [4] turned out to be 23.7%; in the test with Tobacco mosaic virus [5] it was 27.4%; in the test on Tobacco mosaic virus [7], 20.5%.
With `COc1ccc2c3c(c4cc(OC)c(OC)cc4c2c1)CN1CCC[C@H]1[C@H]3NC(=O)C(C)(C)C`, the inhibition at 100 µg/mL with Tobacco mosaic virus [1] turned out to be 30%. In addition, the inhibition at 500 µg/mL with Tobacco mosaic virus [2] was found to be 49.1%. The inhibition in vivo at 500 µg/mL amounted to 43.1% in the test on Tobacco mosaic virus [3], 31.9% in the test with Tobacco mosaic virus [6] and 45% with Tobacco mosaic virus [8]. Also, the inhibition in vivo at 100 µg/mL in the test on Tobacco mosaic virus [4] turned out to be 15.4%; with Tobacco mosaic virus [5] it was 23.6%; in the test with Tobacco mosaic virus [7], 27.7%.
